Test systems include RXF 393; IGROV-1; HCT-116; OVCAR-3; COLO 205; OVCAR-8; DU-145; UACC-257; Malme-3M; KM12; HCC 2998; HOP-62; MDA-MB-435; HCT-15; RPMI-8226; PC-3; HOP-92; HT-29; SK-MEL-28; UO-31.
Test in all cases: NCI-60 cell line screen, 48 h

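Interpolation was linear, between the two tested concentrations surrounding the appropriate level; five concentrations were tested over 48 hours in 96-well plates. GI50 marks 50% less growth.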 Activity calls are given as the source filed them. Rule as the data show it: active = GI50 up to about 1.1 µM and inactive = higher. Where a SMILES comes first, the peptide text is derived from it. [ ]: non-standard residue; d: D form. The star is where a group is joined. ξ: configuration not given here. ξD = NC(CC(=O)O)C(=O)O; Boc = CC(C)(C)OC(=O)*; Aib = CC(C)(N)C(=O)O; OtBu = CC(C)(C)O* Some results are limits rather than exact numbers.

As for `CC[C@H](C)c1occ2c(O)c(C(=O)O)c(=O)cc-2c1C`, the GI50 is 15.5 µM (inactive) with RXF 393; 18.6 µM (inactive) in the assay on IGROV-1; 18.8 µM (inactive) in the assay with HCT-116; 19.5 µM (inactive) with OVCAR-3; 19.3 µM (inactive) with COLO 205; 19.2 µM (inactive) in the assay with OVCAR-8. Besides, the GI50 in the assay with DU-145 is 34.9 µM (inactive); in the assay on UACC-257, 30.3 µM (inactive); in the assay with Malme-3M, 17.5 µM (inactive); in the assay with KM12 it was 18.5 µM (inactive); with HCC 2998 it was 21.1 µM (inactive); in the assay with HOP-62, 24.9 µM (inactive). Also, the GI50 was 22.1 µM (inactive) in the assay on MDA-MB-435; 16.7 µM in the assay on HCT-15; 30.7 µM (inactive) in the assay on RPMI-8226; 33.5 µM (inactive) with PC-3; 21.8 µM (inactive) in the assay on HOP-92; 25.7 µM (inactive) in the assay with HT-29.
For `Cc1nc(=O)[nH]c(NCCNCCO)c1C(=O)Nc1cccc2cc3ccccc3cc12`, the GI50 in the assay on RXF 393, in the assay with IGROV-1, with HCT-116, in the assay with OVCAR-3, in the assay on COLO 205 and in the assay with OVCAR-8 was > 100 µM (inactive) throughout. The GI50 in the assay with DU-145, with UACC-257, in the assay on Malme-3M, in the assay with KM12, in the assay with HCC 2998 and with HOP-62 was > 100 µM (inactive) in each case. Besides, the GI50 in the assay with MDA-MB-435 is > 100 µM (inactive); in the assay with HCT-15, more than 100 µM; in the assay on RPMI-8226 it was > 100 µM (inactive); with PC-3, > 100 µM (inactive); in the assay with SK-MEL-28, > 100 µM (inactive); with HOP-92 it was > 100 µM (inactive). Further, the GI50 in the assay on HT-29 was > 100 µM (inactive).
With `O=C(Nc1ccccc1)c1cc(S(=O)(=O)N2CCNC2=O)c(S)cc1Cl`, the GI50 with RXF 393, in the assay on IGROV-1, in the assay with HCT-116, in the assay on OVCAR-3, in the assay with COLO 205 and in the assay on OVCAR-8 was > 100 µM (inactive) throughout. Moreover, the GI50 in the assay on DU-145, with UACC-257, in the assay with KM12, in the assay on HCC 2998, in the assay with HOP-62 and with MDA-MB-435 was > 100 µM (inactive) each time. The GI50 in the assay with HCT-15 is more than 100 µM; in the assay with RPMI-8226 it was > 100 µM (inactive); with PC-3, > 100 µM (inactive); in the assay on SK-MEL-28, > 100 µM (inactive); with UO-31, > 100 µM (inactive); in the assay with HOP-92 it was > 100 µM (inactive). The GI50 with HT-29 is > 100 µM (inactive).
Take `CCOC(=O)c1nc2cc(C(F)(F)F)ccc2nc1Oc1ccc(C(=O)OC)cc1`: the GI50 with RXF 393 was 85.5 µM (inactive); in the assay with IGROV-1 it was > 100 µM (inactive); in the assay on HCT-116, > 100 µM (inactive); with OVCAR-3, > 100 µM (inactive); in the assay on COLO 205 it was > 100 µM (inactive); with OVCAR-8 it was > 100 µM (inactive). For the same compound, the GI50 in the assay with DU-145, in the assay with UACC-257, in the assay on Malme-3M, in the assay with KM12, with HCC 2998 and in the assay on MDA-MB-435 was > 100 µM (inactive) throughout. In addition, the GI50 is 51.5 µM with HCT-15; > 100 µM (inactive) in the assay with RPMI-8226; > 100 µM (inactive) with PC-3; > 100 µM (inactive) with SK-MEL-28; > 100 µM (inactive) in the assay on UO-31; > 100 µM (inactive) with HOP-92.
For `C/C(=N\O)c1ccc(OCc2cc(C(F)(F)F)cc(C(F)(F)F)c2)cc1`, the GI50 in the assay on RXF 393 was 21.8 µM (inactive); in the assay with IGROV-1, 75 µM (inactive); in the assay on HCT-116, 31.3 µM (inactive); in the assay with OVCAR-3, > 100 µM (inactive); in the assay on COLO 205 it was 29.9 µM (inactive); in the assay with OVCAR-8 it was 41.9 µM (inactive). Moreover, the GI50 was > 100 µM (inactive) with DU-145; 38.5 µM (inactive) with UACC-257; 41 µM (inactive) in the assay with Malme-3M; 19.3 µM (inactive) in the assay with KM12; 32.1 µM (inactive) in the assay with HCC 2998; 50.1 µM (inactive) in the assay with HOP-62. In addition, the GI50 in the assay on MDA-MB-435 is 43.8 µM (inactive); in the assay on HCT-15 it was 30.5 µM; with PC-3 it was 34.1 µM (inactive); in the assay with SK-MEL-28, 61.9 µM (inactive); in the assay on UO-31, > 100 µM (inactive); in the assay on HOP-92 it was 17.6 µM (inactive). Besides, the GI50 with HT-29 was 20.1 µM (inactive).
Take `Cc1cn(C2CCC(/C=N\O)O2)c(=O)[nH]c1=O` (centres undefined): the GI50 in the assay on RXF 393, in the assay with IGROV-1, in the assay on HCT-116, with OVCAR-3, with COLO 205 and in the assay on OVCAR-8 was > 100 µM (inactive) in each case. For the same compound, the GI50 with DU-145, with UACC-257, in the assay on KM12, in the assay with HCC 2998, in the assay with HOP-62 and in the assay on MDA-MB-435 was > 100 µM (inactive) in each case. Besides, the GI50 with HCT-15 is more than 100 µM; in the assay on RPMI-8226, > 100 µM (inactive); with PC-3, > 100 µM (inactive); in the assay with SK-MEL-28 it was > 100 µM (inactive); in the assay on UO-31, > 100 µM (inactive); in the assay with HOP-92 it was > 100 µM (inactive). In addition, in the assay with HT-29, the GI50 was > 100 µM (inactive).
For the compound `COC(=O)C1(C(=O)OC)N=C(C)OC1C(C)C` (centres undefined), the GI50 in the assay with RXF 393, in the assay with HCT-116, in the assay on OVCAR-3, in the assay with COLO 205, with OVCAR-8 and in the assay on DU-145 was > 100 µM (inactive) each time. In addition, the GI50 in the assay on UACC-257 is > 100 µM (inactive); in the assay with KM12 it was > 100 µM (inactive); in the assay with HCC 2998, > 100 µM (inactive); in the assay on HOP-62, > 100 µM (inactive); with MDA-MB-435 it was > 100 µM (inactive); in the assay with HCT-15, more than 100 µM. The GI50 in the assay on RPMI-8226, with PC-3, in the assay on SK-MEL-28, in the assay on UO-31 and in the assay with HOP-92 was > 100 µM (inactive) each time.
`O=[N+]([O-])c1cccc(/N=N/c2c(O)ccc3ccccc23)c1`: the GI50 is 91.2 µM (inactive) in the assay with RXF 393; 94.8 µM (inactive) in the assay with IGROV-1; > 100 µM (inactive) in the assay with HCT-116; > 10 µM (inactive) in the assay on OVCAR-3; > 100 µM (inactive) in the assay with COLO 205; > 100 µM (inactive) with OVCAR-8. Moreover, the GI50 with DU-145 was > 100 µM (inactive); with UACC-257, > 100 µM (inactive); with Malme-3M, 63.1 µM (inactive); in the assay with KM12 it was 42.4 µM (inactive); in the assay with HOP-62 it was 35 µM (inactive); with MDA-MB-435 it was 39.1 µM (inactive). For the same compound, the GI50 was 44.6 µM in the assay on HCT-15; 54.2 µM (inactive) in the assay on RPMI-8226; 55 µM (inactive) in the assay with PC-3; 90.4 µM (inactive) in the assay on SK-MEL-28; > 100 µM (inactive) in the assay with UO-31; 48.1 µM (inactive) in the assay with HOP-92. Further, the GI50 in the assay on HT-29 was > 100 µM (inactive).
Take `CC(=O)OC(C)(C)CCC(=O)[C@](C)(O)[C@H]1[C@H](O)C[C@@]2(C)[C@@H]3CCc4c(cc(OC5OC(CO)C(O)C(O)C5O)c(O)c4C)C3(C)C(=O)C[C@]12C` (some centres undefined): the GI50 in the assay on RXF 393, in the assay with IGROV-1, in the assay on HCT-116, with OVCAR-3, in the assay on COLO 205 and with OVCAR-8 was > 100 µM (inactive) each time. For the same compound, the GI50 in the assay on DU-145, with UACC-257, in the assay on Malme-3M, in the assay on KM12, with HCC 2998 and in the assay on HOP-62 was > 100 µM (inactive) throughout. The GI50 was > 100 µM (inactive) in the assay with MDA-MB-435; more than 100 µM in the assay with HCT-15; > 100 µM (inactive) in the assay on PC-3; > 100 µM (inactive) in the assay with SK-MEL-28; > 100 µM (inactive) in the assay with UO-31; > 100 µM (inactive) with HOP-92. Besides, in the assay with HT-29, the GI50 was > 100 µM (inactive).
Regarding `Cc1cc(=O)oc2c(CN3CCCCC3)c(O)ccc12`, the GI50 with RXF 393, with IGROV-1, with HCT-116, in the assay on OVCAR-3, in the assay with COLO 205 and in the assay on OVCAR-8 was > 100 µM (inactive) throughout. Besides, the GI50 in the assay on DU-145, with UACC-257, in the assay on Malme-3M, in the assay on HCC 2998, in the assay with HOP-62 and in the assay with MDA-MB-435 was > 100 µM (inactive) throughout. Besides, the GI50 was more than 100 µM in the assay with HCT-15; > 100 µM (inactive) in the assay with RPMI-8226; > 100 µM (inactive) in the assay with PC-3; > 100 µM (inactive) with SK-MEL-28; > 100 µM (inactive) with HOP-92; > 100 µM (inactive) with HT-29.
`COC(=O)C(C)(C)NC(=O)C(C)(C)NC(=O)C(CC(=O)OC(C)(C)C)NC(=O)OC(C)(C)C` (centres undefined) (Boc-[ξD](OtBu)-[Aib]-[Aib]-OMe): the GI50 in the assay with RXF 393, with IGROV-1, with HCT-116, in the assay on OVCAR-3, in the assay with COLO 205 and in the assay on OVCAR-8 was > 100 µM (inactive) in each case. In addition, the GI50 in the assay on DU-145, in the assay on UACC-257, with Malme-3M, with KM12, in the assay on HOP-62 and with MDA-MB-435 was > 100 µM (inactive) in each case. For the same compound, the GI50 with HCT-15 was more than 100 µM; in the assay with RPMI-8226 it was > 100 µM (inactive); in the assay with PC-3, > 100 µM (inactive); in the assay on SK-MEL-28, > 100 µM (inactive); in the assay on UO-31, > 100 µM (inactive); with HOP-92 it was > 100 µM (inactive). In addition, in the assay with HT-29, the GI50 was > 100 µM (inactive).

Source of the values: ChEMBL document CHEMBL1201862, “PubChem BioAssay data set” (2004).
